According to patent US9877918B2, “Long-lasting controlled-release liposome composition and method for producing same” (TERUMO KABUSHIKI KAISHA, priority 2011, dated 2018):
Where a name gives a salt, the structure may show the parent alone.

Test: Bupivacaine hydrochloride retention in the administration site after subcutaneous administration
Assay type: in vivo
Details: rat, SC 3.5 mg/kg, four hours after the administration
Protocol: (6) Concentration of Bupivacaine Hydrochloride in Tissue (mg/mL): Sampled tissue was treated, and, for a supernatant obtained finally by centrifugation, absorbance at 210 nm was determined by high performance liquid chromatography using a UV-visible absorptiometer, to thereby measure the concentration of bupivacaine hydrochloride in the tissue.
The bupivacaine hydrochloride liposome preparation prepared in Preparation Example 16 and bupivacaine hydrochloride used alone were subjected to a pharmacokinetic test. The liposome preparation and bupivacaine hydrochloride used alone were administered subcutaneously into a back part of a rat in respective doses as set forth in Table 11 while the doses are set as the amount of bupivacaine hydrochloride. After the lapse of 1, 24, 72, 120, and 168 hours from the administration of the bupivacaine hydrochloride liposome composition, and after the lapse of 0.5, 4, and 24 hours from the administration of bupivacaine hydrochloride used alone, a subcutaneous tissue of the back part in the administration site was sampled and subjected to a homogenizing treatment. […]

retention rate in the administration site: below 1%
SMILES: CCCCN1CCCCC1C(=O)Nc1c(C)cccc1C (stereo not shown) [bupivacaine hydrochloride used alone, Bupivacaine Hydrochloride]
